Test results: US11802120B2, “Fused cyclic urea derivatives as CRHR2 antagonist” (RaQualia Pharma Inc., priority 2018, dated 2023)

Tests used:
human CRHR1-beta = molecular target: T1, human CRHR1-beta (Homo sapiens, UniProt P34998); assay: cAMP functional assay for human CRHR1 (LANCE Ultra cAMP, TR-FRET); type: cell-based; conditions: CHO-K1 cells expressing human CRHR1-beta, agonist CRF at EC80, cAMP; read-out: IC50 against CRHR1
T1 sequence (P34998 24-444 isoform P34998-1 limits assumed): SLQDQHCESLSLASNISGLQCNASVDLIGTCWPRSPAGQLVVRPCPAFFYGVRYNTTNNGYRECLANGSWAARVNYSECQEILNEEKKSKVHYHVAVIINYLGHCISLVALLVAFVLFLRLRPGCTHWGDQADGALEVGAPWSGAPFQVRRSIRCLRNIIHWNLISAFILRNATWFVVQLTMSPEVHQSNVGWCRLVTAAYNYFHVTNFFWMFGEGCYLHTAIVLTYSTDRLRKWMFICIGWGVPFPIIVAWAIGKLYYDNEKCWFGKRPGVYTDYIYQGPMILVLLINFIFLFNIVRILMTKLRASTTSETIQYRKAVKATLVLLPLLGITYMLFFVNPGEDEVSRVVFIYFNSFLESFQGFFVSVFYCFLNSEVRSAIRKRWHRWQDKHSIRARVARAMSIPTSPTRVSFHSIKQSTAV
Procedure: cAMP functional assay for human CRHR1 and CRHR2
The ability of the compounds of this invention to inhibit either CRHR2 or CRHR1 is assessed by 3′,5′-cyclic adenosine monophosphate (cAMP) production in cells using the LANCE Ultra cAMP assay kit (ParkinElmer), which are designed based on the homogeneous time-resolved fluorescence resonance energy transfer (TR-FRET) immunoassay.
CHO-K1 (Chinese hamster ovary) cells stably expressing either human CRHR2-alpha (DiscoveRX, Cat. 95-0048C2) or human CRHR1-beta (DiscoveRX, Cat. 95-0047C2) are grown in HAM's F12 media supplemented with 10% fetal bovine serum (FBS), 100 units/mL penicillin, 100 microg/mL hygromycin and 0.5 microg/mL geneticin at 37° C. in 5% CO2 humidified incubator to 80% confluence. After 7 hours starvation treatment in culture media containing 0.1% FBS, the cells are washed with Hanks balanced salt solution (HBSS) and cryopreserved.
For cAMP assay, frozen cells are thawed and washed with HBSS, followed by resuspended in assay buffer (HBSS containing 0.1% bovine serum albumin, 0.5 mM isobutylmethylxanthine and 5 mM Hepes, pH 7.4) at the appropriate concentration for the assay. The cell suspensions are plated on 384-well microplates (Greiner Bio-One) at a density of 4,000 cells per well. After preincubating the cells with various concentrations of the compounds for 30 min at 25° C., an assay buffer containing EC80 concentration of each agonist is added and the cells are incubated for 30 min at 25° C. Human urocortin2 (Peptide Institute) and CRF (Peptide Institute) are used as agonists for CRHR2 and CRHR1, respectively. For the termination of assay, europium-labeled cAMP tracer and ULight (registered trademark) dye labeled cAMP antibodies, both prepared with Lance-Ultra cAMP detection reagent (Perkin Elmer) are added in the plate and incubate for 60 min at 25° C. After incubation, TR-FRET signal is detected by EnVision plate reader (PerkinElmer). The IC50 values for compounds are calculated from dose-response curves by fitting the percent inhibition using XLfit (ID Business Solutions).

human CRHR2-alpha = molecular target: T2, human CRHR2-alpha (Homo sapiens, UniProt Q13324); assay: cAMP functional assay for human CRHR2 (LANCE Ultra cAMP, TR-FRET); type: cell-based; conditions: CHO-K1 cells expressing human CRHR2-alpha, agonist human urocortin2 at EC80, cAMP; read-out: IC50 against CRHR2
T2 sequence (Q13324 1-411): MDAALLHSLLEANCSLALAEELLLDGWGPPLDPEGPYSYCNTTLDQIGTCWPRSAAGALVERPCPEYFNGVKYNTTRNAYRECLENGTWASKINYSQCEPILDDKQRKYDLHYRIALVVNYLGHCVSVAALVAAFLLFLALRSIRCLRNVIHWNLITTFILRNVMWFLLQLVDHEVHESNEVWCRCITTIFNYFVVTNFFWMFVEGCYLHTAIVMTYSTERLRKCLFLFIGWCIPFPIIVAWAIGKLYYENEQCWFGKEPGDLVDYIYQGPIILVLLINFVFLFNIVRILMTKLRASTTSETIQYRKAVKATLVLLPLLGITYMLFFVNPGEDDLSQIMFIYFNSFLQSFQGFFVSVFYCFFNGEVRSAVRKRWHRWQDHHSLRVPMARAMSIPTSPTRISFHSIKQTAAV
Outline: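 CHO-K1 cells stably expressing each receptor, serum-starved and cryopreserved, were preincubated with compound 30 min at 25° C in HBSS buffer with 0.5 mM IBMX, pH 7.4, then stimulated 30 min with EC80 agonist (urocortin2 for CRHR2, CRF for CRHR1). cAMP read by TR-FRET; IC50 from percent-inhibition curves.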

IC50 (human CRHR1-beta) [nM]	IC50 (human CRHR2-alpha) [nM]	Structure (SMILES)
< 1000	–	Cc1ncc(Cl)cc1C(=O)N[C@H]1CC[C@H](Cn2c(=O)n(CC3CCOCC3)c3ccccc32)CC1 [Example 3, 5-chloro-2-methyl-N-((1r,4r)-4-((2-oxo-3-((tetrahydro-2H-pyran-4-yl)methyl)-2,3-dihydro-1H-benzo[d]imidazol-1-yl)methyl)cyclohexyl)nicotinamide]
< 1000	< 300	Cc1ncc(Cl)cc1C(=O)N[C@H]1CC[C@H](Cn2c(=O)n(-c3ccc(F)cc3)c3ccccc32)CC1 [Example 15, 5-chloro-N-((1r,4r)-4-((3-(4-fluorophenyl)-2-oxo-2,3-dihydro-1H-benzo[d]imidazol-1-yl)methyl)cyclohexyl)-2-methylnicotinamide]
< 1000	< 300	CC(=O)c1ccc(-n2c(=O)n(C[C@H]3CC[C@H](NC(=O)c4cc(Cl)cnc4C)CC3)c3ccccc32)cc1 [Example 18, N((1r,4r)-4-((3-(4-acetylphenyl)-2-oxo-2,3-dihydro-1H-benzo[d]imidazol-1-yl)methyl)cyclohexyl)-5-chloro-2-methylnicotinamide]
< 1000	–	Cc1ncc(Cl)cc1C(=O)N[C@H]1CC[C@H](Cn2c(=O)n(-c3ccc(CO)cc3)c3ccccc32)CC1 [Example 21, 5-chloro-N-((1r,4r)-4-((3-(4-(hydroxymethyl)phenyl)-2-oxo-2,3-dihydro-1H-benzo[d]imidazol-1-yl)methyl)cyclohexyl)-2-methylnicotinamide]
< 1000	–	Cc1ccc(-n2c(=O)n(C[C@H]3CC[C@H](NC(=O)c4cc(Cl)cnc4C)CC3)c3ccccc32)cn1 [Example 31, 5-chloro-2-methyl-N-((1r,4r)-4-((3-(6-methylpyridin-3-yl)-2-oxo-2,3-dihydro-1H-benzo[d]imidazol-1-yl)methyl)cyclohexyl)nicotinamide]
< 1000	–	COc1ncc(-n2c(=O)n(C[C@H]3CC[C@H](NC(=O)c4cc(Cl)cnc4C)CC3)c3ccccc32)cn1 [Example 43, 5-chloro-N-((1r,4r)-4-((3-(2-methoxypyrimidin-5-yl)-2-oxo-2,3-dihydro-1H-benzo[d]imidazol-1-yl)methyl)cyclohexyl)-2-methylnicotinamide]
< 1000	–	Cc1ncc(Cl)cc1C(=O)N[C@H]1CC[C@H](Cn2c(=O)n(-c3ccc(OCCN(C)C)nc3)c3c(C)cccc32)CC1 [Example 59, 5-chloro-N-((1r,4r)-4-((3-(6-(2-(dimethylamino)ethoxy)pyridin-3-yl)-4-methyl-2-oxo-2,3-dihydro-1H-benzo[d]imidazol-1-yl)methyl)cyclohexyl)-2-methylnicotinamide]
< 1000	–	Cc1ncc(Cl)cc1C(=O)N[C@H]1CC[C@H](Cn2c(=O)n(-c3ccc(N4CC[C@H](N(C)C)C4)nc3)c3ccccc32)CC1 [Example 61, 5-chloro-N-((1S,4r)-4-((3-(6-((S)-3-(dimethylamino)pyrrolidin-1-yl)pyridin-3-yl)-2-oxo-2,3-dihydro-1H-benzo[d]imidazol-1-yl)methyl)cyclohexyl)-2-methylnicotinamide]
< 1000	–	Cc1ncc(Cl)cc1C(=O)N[C@H]1CC[C@H](Cn2c(=O)n(-c3ccc(N4CCN(CCO)CC4)nc3)c3ccccc32)CC1 [Example 65, 5-chloro-N-((1r,4r)-4-((3-(6-(4-(2-hydroxyethyl)piperazin-1-yl)pyridin-3-yl)-2-oxo-2,3-dihydro-1H-benzo[d]imidazol-1-yl)methyl)cyclohexyl)-2-methylnicotinamide]
< 1000	–	Cc1ncc(Cl)cc1C(=O)N[C@H]1CC[C@H](Cn2c(=O)n(-c3ccc(N4CCN(C)CC4)nn3)c3ccccc32)CC1 [Example 68, 5-chloro-2-methyl-N-((1r,4r)-4-((3-(6-(4-methylpiperazin-1-yl)pyridazin-3-yl)-2-oxo-2,3-dihydro-1H-benzo[d]imidazol-1-yl)methyl)cyclohexyl)nicotinamide]
< 1000	–	Cc1ncc(Cl)cc1C(=O)N[C@H]1CC[C@H](Cn2c(=O)n(-c3ccc(OCCO)nn3)c3ccccc32)CC1 [Example 69, 5-chloro-N-((1r,4r)-4-((3-(6-(2-hydroxyethoxy)pyridazin-3-yl)-2-oxo-2,3-dihydro-1H-benzo[d]imidazol-1-yl)methyl)cyclohexyl)-2-methylnicotinamide]
< 1000	–	Cc1ncc(Cl)cc1C(=O)N[C@H]1CC[C@H](Cn2c(=O)n(-c3ccc(OCCN(C)C)cc3)c3ccccc32)CC1 [Example 73, 5-chloro-N-((1r,4r)-4-((3-(4-(2-(dimethylamino)ethoxy)phenyl)-2-oxo-2,3-dihydro-1H-benzo[d]imidazol-1-yl)methyl)cyclo-hexyl)-2-methylnicotinamide]
< 1000	–	Cc1ncc(Cl)cc1C(=O)N[C@H]1CC[C@H](Cn2c(=O)n(-c3ccc(OC[C@H]4CNCCO4)nc3)c3ccccc32)CC1 [Example 74, 5-chloro-2-methyl-N-((1R,4r)-4-((3-(6-((R)-morpholin-2-ylmethoxy)pyridin-3-yl)-2-oxo-2,3-dihydro-1H-benzo[d]imidazol-1-yl)methyl)cyclohexyl)nicotinamide]
< 1000	–	Cc1ncc(Cl)cc1C(=O)N[C@H]1CC[C@H](Cn2c(=O)n(-c3ccc(N4CC[C@H](O)C4)nc3)c3ccccc32)CC1 [Example 80, 5-chloro-N-((1S,4r)-4-((3-(6-((S)-3-hydroxypyrrolidin-1-yl)pyridin-3-yl)-2-oxo-2,3-dihydro-1H-benzo[d]imidazol-1-yl)methyl)cyclohexyl)-2-methylnicotinamide]
< 1000	–	Cc1ncc(Cl)cc1C(=O)N[C@H]1CC[C@H](Cn2c(=O)n(-c3ccc(N4CC[C@@H](O)C4)nc3)c3ccccc32)CC1 [Example 81, 5-chloro-N-((1R,4r)-4-((3-(6-((R)-3-hydroxypyrrolidin-1-yl)pyridin-3-yl)-2-oxo-2,3-dihydro-1H-benzo[d]imidazol-1-yl)methyl)cyclohexyl)-2-methylnicotinamide]
< 1000	–	Cc1ncc(Cl)cc1C(=O)N[C@H]1CC[C@H](CN2C(=O)N(c3ccccc3)Cc3ccccc32)CC1 [Example 136, 5-chloro-2-methyl-N-((1r,4r)-4-((2-oxo-3-phenyl-3,4-dihydro-quinazolin-1(2H)-yl)methyl)cyclohexyl)nicotinamide]
–	< 300	O=C(N[C@H]1CC[C@H](Cn2c(=O)n(-c3cccc(N4CCCC4=O)n3)c3ccccc32)CC1)c1cc(Cl)cnc1C(F)F [Example 776, 5-chloro-2-(difluoromethyl)-N-((1r,4r)-4-((2-oxo-3-(6-(2-oxo-pyrrolidin-1-yl)pyridin-2-yl)-2,3-dihydro-1H-benzo[d]imidazol-1-yl)methyl)cyclo-hexyl)nicotinamide]
–	< 300	Cn1ccc(-c2ccc(-n3c(=O)n(C[C@H]4CC[C@H](NC(=O)c5cc(Cl)cnc5C(F)(F)F)CC4)c4ccccc43)cn2)n1 [Example 777, 5-chloro-N-((1r,4r)-4-((3-(6-(1-methyl-1H-pyrazol-3-yl)pyridin-3-yl)-2-oxo-2,3-dihydro-1H-benzo[d]imidazol-1-yl)methyl)cyclohexyl)-2-(trifluoromethyl)nicotinamide]
